Here are results for 25 compounds from PubChem BioAssay (NCI).

Each structure is given as a SMILES string.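 Results reflect a 48-hour exposure of cells in 96-well plates to compound at five concentrations. GI50 marks 50% less growth. At the TGI there is no net growth.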

Experiment in all cases: DTP human tumour cell line panel, 48 h
The test system of assay [1] is RXF 393 renal.
Assay [2] deals with HL-60(TB) leukemia.
In assay [3] the test system is CCRF-CEM leukemia.
Assay [4] deals with COLO 205 colon.
The subject of assay [5] is TK-10 renal.
The subject of assay [6] is U251 CNS.
The test system of assay [7] is EKVX NSCLC.
The subject of assay [8] is UO-31 renal.
Assay [9] deals with SK-MEL-5 melanoma.
For assay [10], the system named is NCI/ADR-RES ovarian.

As a reminder, the TGI is the concentration at which net growth stops. Low values mean more potent growth arrest, high ones less potent growth arrest. The term GI50 denotes the concentration giving 50% growth inhibition.

For `CC1CC[C@@]2(OC1)OC1C[C@H]3[C@@H]4CC[C@H]5CC(OC6OC(CO)C(OC7OC(CO)C(O)C(O)C7OC7OC(CO)C(O)C(O)C7O)C(O)C6O)CCC5(C)[C@H]4CCC3(C)C1[C@@H]2C` (stereo partly specified), the TGI is 2.76 µM in [1]; 11.6 µM in assay [2]; 4.1 µM in assay [3]; 1.77 µM in [4]; 5.36 µM in assay [5]; 2.74 µM in assay [6]. The TGI in [7] came to 2.21 µM; in [8], 1.94 µM; in assay [9] it was 13.5 µM; in [10], 13.8 µM.

Take `O=C1/C(=C\c2cccc(Oc3ccccc3)c2)S(=O)(=O)C(c2ccccc2)N1Cc1ccccc1` (stereo unspecified): the TGI was 77.5 µM in assay [1]; 57.7 µM in assay [2]; > 100 µM in [3]; 57 µM in assay [4]; > 100 µM in assay [5]; > 100 µM in assay [6]. Besides, the TGI stood at 71.9 µM in assay [7], 47.9 µM in assay [8], 39.3 µM in [9] and 45 µM in assay [10].

In the case of `COc1cc2c(cc1-c1c(C)noc1C)cc(C)c(=O)n2Cc1ccccn1`, the GI50 is 0.498 µM in assay [1]; 0.301 µM in [2]; 1.57 µM in assay [3]; 0.566 µM in [4]; 0.34 µM in assay [5]; 4.43 µM in assay [6]. The GI50 in assay [7] is 1.67 µM; in assay [8] it was 0.376 µM; in assay [9] it was 1.99 µM; in [10], 1.34 µM. The TGI is 5 µM in [1]; 3.77 µM in assay [2]; > 100 µM in assay [3]; 22.2 µM in assay [4]; 18.3 µM in assay [5]; > 100 µM in [6]. In addition, the TGI in [7] is > 100 µM; in [8], > 100 µM; in [9], 10.7 µM; in assay [10] it was > 100 µM.

As to `C=CCn1c(=O)ccn(COCCO)c1=O`, the TGI in [1], in assay [2], in [3], in assay [4], in assay [5] and in assay [6] was > 100 µM in each case. Also, the TGI in [7], in assay [8], in [9] and in assay [10] was > 100 µM each time.

Turning to `CC(C)COP(=O)(OCC(C)C)C(NS(=O)(=O)c1ccccc1)(C(F)(F)F)C(F)(F)F`, the TGI in assay [1] was determined as 21.1 µM; in [2], 4.13 µM; in [3], 36.6 µM; in assay [4], 3.94 µM; in [5] it was 15.6 µM; in [6] it was 17.3 µM. Moreover, the TGI worked out at 19 µM in [7], 7.4 µM in [8], 33 µM in [9] and 23.6 µM in assay [10].

With `Clc1ccc(-c2nn3c(-c4ccncc4)nnc3s2)cc1`, the TGI in assay [1] was 82.1 µM; in assay [2], > 100 µM; in assay [3], > 100 µM; in assay [4], > 100 µM; in assay [5], > 100 µM; in assay [6] it was 75 µM. Also, the TGI in assay [7], in assay [8], in assay [9] and in assay [10] was > 100 µM in each case.

For the compound `O=C1c2cc3c(cc2CC1Br)CCC3` (stereo unspecified), the TGI in [1] was 4.04 µM; in [2], > 20.1 µM; in assay [3], 2.18 µM; in assay [4] it was 3.85 µM; in [5] it was 8.77 µM; in [6], 8.09 µM. In addition, the TGI was determined as 28.9 µM in assay [7], 22.4 µM in assay [8], 3.36 µM in assay [9] and 19.2 µM in [10].

For `Oc1ccccc1/C=N/c1nc2cc3sc(/N=C/c4ccccc4O)nc3cc2s1`, the TGI was > 85.3 µM in assay [1]; > 73.3 µM in [2]; > 100 µM in [3]; 20.7 µM in assay [4]; > 100 µM in [5]; > 100 µM in [6]. The TGI in assay [7], in assay [8], in [9] and in [10] was > 100 µM each time.

Take `CS(=O)(=O)OCCn1c(=O)n(CCOS(C)(=O)=O)c(=O)n(CCOS(C)(=O)=O)c1=O`: the TGI in assay [1], in [2], in [3], in assay [4], in [5] and in assay [6] was > 100 µM in each case. Moreover, the TGI in assay [7], in assay [8], in assay [9] and in assay [10] was > 100 µM throughout.

For `Cc1ccccc1C(O)(c1nccn1C)c1nccn1C`, the TGI in [1], in assay [2], in assay [3], in assay [4], in [5] and in [6] was > 100 µM throughout. Moreover, the TGI in assay [7], in assay [8], in [9] and in [10] was > 100 µM in each case.

For `O=C(NCCN1CCOCC1)c1ccc2cc(C(=O)N3CC(CCl)c4ccc([N+](=O)[O-])cc43)[nH]c2c1` (stereo unspecified), the TGI in assay [1] is 20.4 µM; in assay [2], 94.7 µM; in assay [3], > 100 µM; in assay [4], > 100 µM; in assay [5] it was 36.6 µM; in assay [6], 57.8 µM. For the same compound, the TGI in assay [7] was 86.3 µM; in assay [8] it was > 100 µM; in [9], 4.73 µM; in assay [10] it was > 100 µM.

As to `O=c1oc(-c2ccc(O)c(O)c2)cc2cccc(O)c12`, the TGI in [1] is 69.3 µM; in assay [2], 50.2 µM; in assay [3] it was > 46.1 µM; in assay [4], > 48.3 µM; in assay [5], > 49.1 µM; in assay [6], 79.1 µM. Besides, the TGI in assay [7] is 51.2 µM; in [8], > 59.4 µM; in [9], 23.4 µM; in [10] it was 51.3 µM. Also, the GI50 in [6] is 17.1 µM.

Consider `CCN(CCO)CC1COc2ccccc2O1` (stereo unspecified), for which the TGI in assay [1], in assay [2], in assay [3], in [4], in assay [5] and in assay [6] was > 100 µM in each case. The TGI in assay [7], in assay [8], in assay [9] and in assay [10] was > 100 µM each time.

For the compound `CC(C)/C(Cl)=N\OC(=O)Nc1ccc(C#N)cc1`, the TGI in assay [1] is 8.01 µM; in [2] it was > 22.7 µM; in assay [3] it was 6.85 µM; in assay [4], 3.24 µM; in assay [5] it was 12.9 µM; in [6], 31.9 µM. Moreover, the TGI in assay [7] was 7.31 µM; in assay [8], 21.2 µM; in [9] it was 9.91 µM; in assay [10] it was 32.2 µM.

With `Cc1csc(-c2cn(C)c3c2C(=O)C(N)=CC3=O)n1`, the TGI in [1] was > 100 µM; in assay [2], 14.8 µM; in assay [3], > 100 µM; in assay [4], > 100 µM; in assay [5], > 100 µM; in [6] it was > 100 µM. The TGI is > 100 µM in assay [7], > 100 µM in assay [8], 3.27 µM in assay [9] and > 100 µM in [10].

Consider `CCCCC1c2c([nH]c3ccccc23)C2C(=O)N(c3ccc(OC)cc3)C(=O)C2C1CCC` (stereo unspecified), for which the TGI in [1] is > 10 µM; in [2], 5.45 µM; in assay [3], 9.12 µM; in assay [4] it was 6.34 µM; in assay [5], > 10 µM; in assay [6] it was > 10 µM. For the same compound, the TGI was > 10 µM in assay [7], > 10 µM in assay [8], > 10 µM in assay [9] and 5.68 µM in [10].

On to `CCCNC(=O)CCC(C)[C@H]1CCC2C3C(C[C@H](OC(C)=O)[C@@]21C)[C@@]1(C)CCC2(C[C@H]1C[C@H]3OC(C)=O)OOC1(CCC(C)CC1)OO2` (stereo partly specified), for which the TGI in assay [1] is > 100 µM; in assay [2], 32.4 µM; in assay [3], 2.16 µM; in assay [4], 29.9 µM; in assay [5], 58.8 µM; in [6], 30.6 µM. The TGI in assay [7] came out at 30.6 µM; in [8], 2.42 µM; in assay [9] it was 28.6 µM; in assay [10], 40.5 µM.

Consider `CCOc1cc(C2CC(c3ccc(NS(=O)(=O)c4cc([N+](=O)[O-])ccc4C)cc3)=NN2C(=O)c2ccccc2)ccc1O` (stereo unspecified), for which the TGI in [1] was 42.6 µM; in assay [2], 65.4 µM; in assay [3], > 100 µM; in assay [4], 31.4 µM; in assay [5] it was 54.2 µM; in [6] it was > 100 µM. In addition, the TGI is 61.4 µM in [7], > 100 µM in [8], 37.8 µM in assay [9] and > 100 µM in [10].

For `COc1ccc(C2(CC(C)O)SCCCS2)cc1` (stereo unspecified), the TGI in assay [1], in assay [2], in assay [3], in assay [4], in assay [5] and in assay [6] was > 100 µM in each case. Moreover, the TGI in assay [7], in [8], in [9] and in assay [10] was > 100 µM each time.

Consider `Nc1c(-c2cccc3ccccc23)c2ccc([N+](=O)[O-])cc2c(=O)n1-c1nc2ccccc2s1`, for which the TGI in [1] was > 31.3 µM; in assay [2], 5.37 µM; in assay [3], > 100 µM; in assay [4] it was > 100 µM; in [5], > 100 µM; in [6], > 50.5 µM. Besides, the TGI was 17.4 µM in assay [7], > 100 µM in [8], 37.7 µM in assay [9] and 10.5 µM in assay [10].

In the case of `COC(=O)[C@]12CC[C@H]3CN(C(=O)OCc4ccccc4)[C@H]([C@H]31)[C@H](c1ccco1)N2S(=O)(=O)c1ccc(C)cc1`, the TGI in assay [1] was 38.1 µM; in assay [2], 58.7 µM; in assay [3], > 100 µM; in assay [4] it was 38.4 µM; in assay [5] it was 90.2 µM; in [6], 71.4 µM. In addition, the TGI is > 100 µM in assay [7], 46.6 µM in assay [8], 33.3 µM in assay [9] and 61.2 µM in assay [10].

As for `COC(=O)c1c2c(cc3c1CC1(C3)Cc3cc4c(c(C(=O)OC)c3C1)CCCC4)CCCC2`, the TGI in [1] was > 100 µM; in [2], 74.5 µM; in assay [3] it was 96 µM; in [4], > 100 µM; in assay [5], > 100 µM; in [6] it was > 100 µM. Moreover, the TGI was > 100 µM in [7], 1.23 µM in assay [8], > 100 µM in [9] and > 100 µM in assay [10].

Regarding `COc1ccc2cc3c4cc5c(cc4cc[n+]3cc2c1OC)OCO5`, the TGI is > 69.6 µM in assay [1]; > 65.5 µM in [2]; 35.5 µM in [3]; 6.73 µM in assay [4]; 83.2 µM in [5]; 15.3 µM in assay [6]. Also, the TGI in [7] is > 100 µM; in assay [8], > 100 µM; in [9] it was 14.1 µM; in [10], > 100 µM.

Regarding `CN(C)Cc1cc(C(=O)/C=C/c2ccc(O)cc2)cc(CN(C)C)c1O`, the TGI in assay [1] is > 100 µM; in assay [2], 49.9 µM; in assay [3], 88.3 µM; in assay [4] it was 33.9 µM; in [5], > 100 µM; in [6], 32.2 µM. For the same compound, the TGI in assay [7] is > 100 µM; in assay [8], > 100 µM; in assay [9], 38.5 µM; in assay [10], > 100 µM.

Turning to `C(=N\NC1=NCCCN1)/c1ccc2ccccc2c1`, the TGI in assay [1] is 30.3 µM; in assay [2], 21 µM; in [3] it was 43.8 µM; in [4], 19.3 µM; in assay [5] it was 36.8 µM; in assay [6], 19.8 µM. In addition, the TGI in assay [7] was 32.8 µM; in assay [8] it was 23.8 µM; in assay [9] it was 10.3 µM; in [10], 76.1 µM.
